Series [1] is described as follows: Pharmacokinetic evaluation in rats. The class given is in vivo, Sprague-Dawley rats. To be noted: rat; for AUC(0-inf) / AUC(0-t) / Tmax / MRT inf / Cmax: plasma; for MRT inf: read-out: MRTINF_pred. The protocol: 6 male Sprague-Dawley rats (7-8 weeks old, and weighing approximately 210 g) were divided into 2 groups with 3 rats in each group. The rats were intravenously or orally administered a single dose of compound (3 mg/kg intravenously, 10 mg/kg orally) to compare pharmacokinetic differences.
The rats were raised on standard food and water. Fasting was started 16 hours before the test. The drug was dissolved with PEG400 and dimethyl sulfoxide. The blood samples were collected from eyelids at the time points of 0.083 hours, 0.25 hours, 0.5 hours, 1 hour, 2 hours, 4 hours, 6 hours, 8 hours, 12 hours, and 24 hours after administration.
Rats were briefly anesthetized after inhalation of diethyl ether and 300 μL of blood sample was collected from the eyelids into test tubes. There was 30 μL of 1% heparin salt solution in the test tube. Tubes were dried at 60° C. overnight before use. After the blood sample was collected at a later time point, the rats were sacrificed after ether anesthesia.
Immediately after the collection of the blood sample, the test tube was gently inverted at least 5 times to ensure sufficient mixing and then placed on ice. The blood sample was centrifuged at 5000 rpm at 4° C. for 5 minutes to separate the plasma from the red blood cells. 100 μL of plasma was aspirated into a clean plastic centrifuge tube with a pipette, marking with the name of the compound and time point. Plasma was stored at −80° C. prior to analysis. The concentration of the compound of the present disclosure in plasma was determined by LC-MS/MS. The pharmacokinetic parameters were calculated based on the blood concentration of each animal at different time points.

Series [2] is described as follows: Metabolic stability in human liver microsomes. Format: in vitro ADME. To be noted: pH 7.4, human liver microsomes 0.5 mg/mL, compound 1 μM, NADPH, 37° C. The protocol:
(§1) Experiments in microsomes: Human liver microsomes: 0.5 mg/mL, Xenotech; Rat liver microsomes: 0.5 mg/mL, Xenotech; Coenzyme (NADPH/NADH): 1 mM, Sigma Life Science; Magnesium chloride: 5 mM, 100 mM phosphate buffer (pH 7.4).
(§2) Preparation of stock solution: Powder of the example compound 1-7 was accurately weighed and dissolved in DMSO to 5 mM. Preparation of phosphate buffer (100 mM, pH7.4): A pre-formulated 0.5M potassium dihydrogen phosphate (150 mL) was mixed with 0.5M dibasic potassium phosphate (700 mL). The pH of the mixture was adjusted to 7.4 with 0.5M dibasic potassium phosphate solution. The mixture was diluted 5-fold with ultrapure water before use, and magnesium chloride was added to obtain a phosphate buffer (100 mM) containing 100 mM potassium phosphate, 3.3 mM magnesium chloride, pH 7.4. A NADPH regeneration system solution (containing 6.5 mM NADP, 16.5 mM G-6-P, 3 U/mL G-6-PD, 3.3 mM magnesium chloride) was prepared and placed on wet ice prior to use. Preparation of stop solution: acetonitrile solution containing 50 ng/mL propranolol hydrochloride and 200 ng/mL tolbutamide (internal standard). 25057.5 μL of phosphate buffer (pH 7.4) was taken into a 50 mL centrifuge tube, to which 812.5 μL human liver microsomes were added, and mixed to obtain a liver microsome dilution solution with a protein concentration of 0.625 mg/mL. 25057.5 μL of phosphate buffer (pH 7.4) was taken into a 50 mL centrifuge tube, to which 812.5 μL SD rat liver microsomes were added, and mixed to obtain a liver microsome dilution solution with a protein concentration of 0.625 mg/mL.
(§3) Incubation of the samples: The stock solution of the respective compound was respectively diluted to 0.25 mM with an aqueous solution containing 70% acetonitrile, and used as a working solution, ready for use. 398 μL of the dilution solution of human liver microsomes or rat liver microsome were added to a 96-well incubation plate (N=2), respectively, and 2 μL of 0.25 mM working solution was added and mixed.
(§4) Metabolic stability assay: 300 μL of pre-chilled stop solution was added to each well of a 96-well deep well plate and placed on ice as a stop plate. The 96 well incubation plate and NADPH regeneration system were placed in a 37° C. water bath box, shaken at 100 rpm and pre-incubated for 5 min. 80 μL of incubation solution was taken out from each well of the incubation plate and added to the stop plate, mixed, and replenished with 20 μL of NADPH regeneration system solution as a 0-min sample. 80 μL of NADPH regeneration system solution was added to each well of the incubation plate to start the reaction and start counting. […] Separately, 100 μL of the reaction solution was taken at 10, 30, and 90 min reaction, respectively, added to a stop plate, and vortexed for 3 minutes to terminate the reaction. The stop plate was centrifuged at 5000×g at 4° C. for 4 min. 100 μL of the supernatant was added to a 96-well plate to which 100 μL of distilled water was previously added, mixed, and analyzed by LC-MS/MS.
(§5) Data analysis: The peak areas of the corresponding compound and internal standard were detected by LC-MS/MS system, and the ratio of the peak area of the compound to the internal standard was calculated. The slope was measured by plotting the natural logarithm of the percent of compound remaining versus time, and t1/2 and CLint were calculated according to the formula, where V/M is equal to 1/protein concentration.
In general terms: Liver microsomes are a subcellular fraction often used to study metabolism.

A short description of series [3]: Metabolic stability in rat liver microsomes. To be noted: Sprague-Dawley, pH 7.4, rat liver microsomes 0.5 mg/mL, compound 1 μM, NADPH, 37° C. The class given is in vitro ADME, SD rat. The protocol:
as §1, §2, §3, §4, §5

Setting [4] is: male, Sprague-Dawley, IV, 3 mg/kg single dose.
The mark [5] stands for this setting: male, Sprague-Dawley, PO, 10 mg/kg single dose.

As usually defined, the AUC(0-inf) is total exposure, with the tail of the curve extrapolated. Low readings indicate low exposure, high ones high exposure. One may read the AUC(0-t) as the area under the concentration-time curve up to a stated or last time point. Read a high AUC(0-t) as more exposure. What is called Tmax is the time at which the peak concentration occurs. For orientation: Cmax means the peak of the concentration-time curve. One may read the microsomal CLint as the rate of metabolic loss divided by the concentration. A higher microsomal CLint goes with faster metabolism.

Read-outs that look alike come from different tables or passages of the source. Some results are limits rather than exact numbers.

On to `Cc1nc(C(=O)NCC(=O)O)c(O)c2ccc(Oc3ccccc3)cc12` [FG-4592, reference compound], for which the total exposure AUC(0-inf) was found to be 63.8 µg·h/mL in series [1] (setting [4]) and 196 µg·h/mL in series [1] (setting [5]). Besides, the figures for the AUC(0-t) in series [1] (setting [4]) and in series [1] (setting [5]) were 63.8 µg·h/mL and 196 µg·h/mL, respectively. The Tmax in series [1] (setting [4]) stood at 0.08 h; in series [1] (setting [5]), 2.83 h. In addition, the results for the MRT inf in series [1] (setting [4]) and in series [1] (setting [5]) were 2.82 h and 5.03 h, respectively. For the same compound, the F in series [1] (male, Sprague-Dawley, in vivo) amounted to 92.21%. In addition, the half-life in series [1] (male, Sprague-Dawley, in vivo, iv, 3 mg/kg) is 2.08 h; in series [1] (male, Sprague-Dawley, in vivo, po, 10 mg/kg) it was 2.78 h. For the same compound, the Cmax was found to be 21100 ng/mL in series [1] (setting [4]) and 22100 ng/mL in series [1] (setting [5]). In addition, the Vz_pred was 0.15 L/kg in series [1] (IV, 3 mg/kg single dose) and 0.20 L/kg in series [1] (PO, 10 mg/kg single dose). Besides, the microsomal CLint at 1 μM in series [2] and in series [3] was below 8.6 µL/min/mg throughout. The half-life at 1 μM in series [2] (read-out: t1/2 in human liver microsomes) and in series [3] (read-out: t1/2 in rat liver microsomes) was above 2.42 h throughout.

For the origin of these results see US10851062B2, “Substituted heteroaryl compound, composition containing same, and application thereof” (Shenzhen TargetRx, Inc., priority 2016, dated 2020).
